From PubChem BioAssay AID330 (DTP/NCI, 2004)
“And” between values parts separate entries of the source, which are not always exact repeats. Equal values may be shown once. Inconclusive results and toxic doses are left out. The calls were made as follows: active = survival T/C of 150% or more; inactive = T/C below 125% in these data. Peptide text beside a SMILES is read from it. * marks the point of attachment. Cbz = O=C(OCc1ccccc1)*; OBn = c1ccc(CO*)cc1

Test system: P388 leukemia ip, CD2F1 mice, survival T/C
Experiment: NCI In Vivo Anticancer Drug Screen. Data for tumor model P388 Leukemia (intraperitoneal) in CD2F1 (CDF1) mice
Conditions: endpoint: median survival time, higher = longer survival
In short: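 Mice carrying the transplanted tumor received test compound or vehicle. Survival was recorded in each group, and the value is the treated-group measurement divided by that of the vehicle-treated control group.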

[1] = dose: 12.5 mg/kg/injection, schedule: Q01DX009 (ip), vehicle: saline with Tween-80
[2] = dose: 25.0 mg/kg/injection, schedule: Q01DX009 (ip), vehicle: saline with Tween-80
[3] = dose: 50.0 mg/kg/injection, schedule: Q01DX009 (ip), vehicle: saline with Tween-80
[4] = dose: 50.0 mg/kg/injection, schedule: Q01DX005 (ip), vehicle: saline with Tween-80
[5] = dose: 100.0 mg/kg/injection, schedule: Q01DX005 (ip), vehicle: saline with Tween-80
[6] = dose: 200.0 mg/kg/injection, schedule: Q01DX005 (ip), vehicle: saline with Tween-80
[7] = dose: 12.5 mg/kg/injection, schedule: Q01DX009 (ip), vehicle: saline
[8] = dose: 25.0 mg/kg/injection, schedule: Q01DX009 (ip), vehicle: saline
[9] = dose: 50.0 mg/kg/injection, schedule: Q01DX009 (ip), vehicle: saline
[10] = dose: 50.0 mg/kg/injection, schedule: Q01DX005 (ip), vehicle: Klucel (hydroxypropylcellulose) (HPC)
[11] = dose: 100.0 mg/kg/injection, schedule: Q01DX005 (ip), vehicle: Klucel (hydroxypropylcellulose) (HPC)
[12] = dose: 200.0 mg/kg/injection, schedule: Q01DX005 (ip), vehicle: Klucel (hydroxypropylcellulose) (HPC)
[13] = dose: 50.0 mg/kg/injection, schedule: Q01DX009 (ip), vehicle: Klucel (hydroxypropylcellulose) (HPC)
[14] = dose: 100.0 mg/kg/injection, schedule: Q01DX009 (ip), vehicle: Klucel (hydroxypropylcellulose) (HPC)
[15] = dose: 100.0 mg/kg/injection, schedule: Q01DX009 (ip), vehicle: saline
[16] = dose: 200.0 mg/kg/injection, schedule: Q01DX009 (ip), vehicle: saline
[17] = dose: 100.0 mg/kg/injection, schedule: Q01DX009 (ip), vehicle: saline with Tween-80
[18] = dose: 200.0 mg/kg/injection, schedule: Q01DX009 (ip), vehicle: saline with Tween-80
[19] = dose: 200.0 mg/kg/injection, schedule: Q01DX009 (ip), vehicle: Klucel (hydroxypropylcellulose) (HPC)
[20] = dose: 60.0 mg/kg/injection, schedule: Q01DX005 (ip), vehicle: saline with Tween-80
[21] = dose: 120.0 mg/kg/injection, schedule: Q01DX005 (ip), vehicle: saline with Tween-80
[22] = dose: 240.0 mg/kg/injection, schedule: Q01DX005 (ip), vehicle: saline with Tween-80

Measured: T/C

CCCCCCCCCCC(O)Cn1ccnc1 (stereo not given)
inactive: [1] 96 % of control | [2] 100 % of control | [3] 95 % of control

O=C(NS(=O)C1C=CCCC1)OC1CCCCC1c1ccccc1 (stereo not given)
inactive: [4] 99 % of control | [5] 100 % of control | [6] 105 % of control

CC(=O)c1ccc2c(c1)N(CCCN1CCN(CCO)CC1)c1ccccc1S2
inactive: dose: 1.56 mg/kg/injection, schedule: Q01DX009 (ip), vehicle: saline 116 % of control | dose: 3.12 mg/kg/injection, schedule: Q01DX009 (ip), vehicle: saline 103 % of control | dose: 6.25 mg/kg/injection, schedule: Q01DX009 (ip), vehicle: saline 107 % of control | dose: 6.25 mg/kg/injection, schedule: Q04DX003 (ip), vehicle: saline 91 % of control | [7] 108 % of control | dose: 12.5 mg/kg/injection, schedule: Q04DX003 (ip), vehicle: saline 103 % of control | [8] 106 % of control | dose: 25.0 mg/kg/injection, schedule: Q04DX003 (ip), vehicle: saline 107 % of control | [9] 109 % of control | dose: 50.0 mg/kg/injection, schedule: Q04DX003 (ip), vehicle: saline 119 % of control

COC1=C(OC)S[C@H]2C3CC([C@H]2S1)[C@@H]1SC(OC)=C(OC)S[C@H]31
inactive: [10] 97 % of control | [11] 97 % of control | [12] 98 % of control

Cc1[nH]c2c(-c3ccccc3)c3cc(Cl)ccc3nc2c1C(=O)O
inactive: dose: 25.0 mg/kg/injection, schedule: Q01DX009 (ip), vehicle: Klucel (hydroxypropylcellulose) (HPC) 92 % of control | [13] 89 % of control | [14] 86 % of control

NC(=O)CSc1ncnc2nc[nH]c12
inactive: [9] 97 % of control | [15] 100 % of control | [16] 102 % of control

Cc1nn(C(N)=S)c(C)c1N=Nc1ccc(O)cc1
inactive: [4] 103 % of control | [5] 103 % of control | [6] 107 % of control

CC(C)COC1OCCCC1C(OCC(C)C)C(C)C (stereo not given)
inactive: [15] 108 % of control | [16] 113 % of control | dose: 400.0 mg/kg/injection, schedule: Q01DX009 (ip), vehicle: saline 99 % of control

O=C(Cc1ccccc1)N1CCc2cc3c(cc2/C1=C/c1cc2c(cc1Br)OCO2)OCO3
inactive: dose: 12.5 mg/kg/injection, schedule: Q01DX001 (ip), vehicle: saline + alcohol 100 % of control | dose: 25.0 mg/kg/injection, schedule: Q01DX001 (ip), vehicle: saline + alcohol 99 % of control | dose: 50.0 mg/kg/injection, schedule: Q01DX001 (ip), vehicle: saline + alcohol 100 % of control

CCOc1cccc(Cl)n1
inactive: [3] 104 % of control | [17] 100 % of control | [18] 90 % of control

CCOC(=O)C(CNc1ccc(OCc2ccccc2)cc1)NC(=O)c1ccccc1 (stereo not given)
inactive: [3] 105 % of control | [9] 96 % of control | [17] 100 % of control | [15] 88 % of control | [18] 87 % of control | [16] 88 % of control | dose: 400.0 mg/kg/injection, schedule: Q01DX009 (ip), vehicle: saline with Tween-80 91 % of control

O=C1c2ccccc2C(=O)c2cnccc21
inactive: [10] 109 % of control | [11] 106 % of control | [12] 106 % of control

COc1ccc(CN2CCC[S+]2C)cc1 (stereo not given)
inactive: dose: 50.0 mg/kg/injection, schedule: Q01DX005 (ip), vehicle: saline 95 % of control

COc1cc2c[n+](C)c3c4cc(OC)c(OC)cc4c(OCc4ccccc4)cc3c2cc1OC
inactive: dose: 6.25 mg/kg/injection, schedule: Q01DX005 (ip), vehicle: saline with Tween-80 123 % of control and 124 % of control | dose: 12.5 mg/kg/injection, schedule: Q01DX005 (ip), vehicle: saline with Tween-80 124 % of control

OC(CCC1OCCO1)(CCC1OCCO1)c1ccccc1
inactive: [13] 97 % of control | [14] 103 % of control | [19] 93 % of control

O=C1c2ccccc2C(=O)c2c(NCC3CCCN4CCCCC34)cccc21 (stereo not given)
inactive: [10] 100 % of control | [11] 98 % of control | [12] 100 % of control

O=C(O)c1cn(O)ccc1=O
inactive: [4] 94 % of control | [5] 100 % of control | [6] 97 % of control

CCC/C=C/C=C\C(=O)O[C@@H]1[C@@H](C)[C@]2(O)[C@@H]3C=C(C)C(=O)[C@H]3CC(COC(C)=O)=C[C@H]2[C@@H]2C(C)(C)[C@]12OC(C)=O
inactive: dose: 0.38 mg/kg/injection, schedule: Q01DX005 (ip), vehicle: saline + alcohol 123 % of control and 92 % of control | dose: 0.38 mg/kg/injection, schedule: Q01DX005 (ip), vehicle: saline with Tween-80 100 % of control | dose: 0.75 mg/kg/injection, schedule: Q01DX005 (ip), vehicle: saline with Tween-80 105 % of control | dose: 1.5 mg/kg/injection, schedule: Q01DX005 (ip), vehicle: saline with Tween-80 103 % of control | dose: 3.0 mg/kg/injection, schedule: Q01DX005 (ip), vehicle: saline with Tween-80 117 % of control

CC1SC(C)(C)N(C=O)C1C(=O)O (stereo not given)
inactive: [3] 99 % of control and 100 % of control | [17] 101 % of control and 91 % of control | [18] 106 % of control and 94 % of control

O=C(Cc1nc2ccccc2[nH]1)N/N=C1\SCC(=O)N1C1CCCCC1
inactive: dose: 100.0 mg/kg/injection, schedule: Q01DX001 (ip), vehicle: Klucel (hydroxypropylcellulose) (HPC) 98 % of control | dose: 200.0 mg/kg/injection, schedule: Q01DX001 (ip), vehicle: Klucel (hydroxypropylcellulose) (HPC) 100 % of control | dose: 400.0 mg/kg/injection, schedule: Q01DX001 (ip), vehicle: Klucel (hydroxypropylcellulose) (HPC) 99 % of control

CCCCCCC1(/C=C/c2ccc(Cl)c(Cl)c2)OCCS1 (stereo not given)
inactive: [7] 96 % of control | [8] 104 % of control | [9] 100 % of control and 109 % of control and 95 % of control | [15] 95 % of control | [16] 88 % of control

O=c1c2ccccc2nc(-c2ccccc2)n1-c1nccs1
inactive: [4] 86 % of control | [5] 89 % of control | [6] 91 % of control

COC1(C2COc3cc(OCc4ccccc4)ccc3C2=O)C=C2OCOC2=CC1=O (stereo not given)
inactive: dose: 12.5 mg/kg/injection, schedule: Q01DX005 (ip), vehicle: Klucel (hydroxypropylcellulose) (HPC) 99 % of control | dose: 25.0 mg/kg/injection, schedule: Q01DX005 (ip), vehicle: Klucel (hydroxypropylcellulose) (HPC) 96 % of control | [10] 89 % of control

C=CCOc1cc2c(cc1C(CC)c1ccc(OCc3ccccc3)cc1)OCO2 (stereo not given)
inactive: [4] 102 % of control | [5] 100 % of control | [6] 95 % of control

COc1ccc(-c2cc[n+]([O-])c(C)c2C)c(OC)c1OC
inactive: [3] 94 % of control | [17] 96 % of control | [18] 92 % of control

O=S(=O)(c1ccccc1)N1CCN(S(=O)(=O)c2ccccc2)COC1
inactive: [4] 103 % of control | [5] 101 % of control | [6] 102 % of control

CCCCCc1cc(O)c2c(c1)OC(C)(CCC=C(C)C)C=C2 (stereo not given)
inactive: dose: 6.25 mg/kg/injection, schedule: Q01DX009 (ip), vehicle: saline with Tween-80 100 % of control | [1] 110 % of control | [2] 109 % of control | [3] 112 % of control

c1cc[c]([Ge]([c]2ccccc2)[c]2ccccc2)cc1
inactive: [20] 91 % of control | [21] 100 % of control | [22] 97 % of control

NNC1=Nc2ccccc2N=C2CCSCC21 (stereo not given)
inactive: [13] 97 % of control | [14] 112 % of control | [19] 108 % of control

O=C(O)/C=C\C(=O)ONCc1ccccc1
inactive: [4] 106 % of control | [5] 106 % of control | [6] 106 % of control

O=C(NC(CO)C(=O)N1CCCC1C(=O)OCc1ccccc1)OCc1ccccc1 (stereo not drawn) (Cbz-Ser-Pro-OBn; configuration not given here)
inactive: [10] 96 % of control | [11] 93 % of control | [12] 92 % of control

COc1c(OC)c(C2(O)C(=O)N(C)c3ccccc32)c2c(c1C1(O)C(=O)N(C)c3ccccc31)OCO2 (stereo not given)
inactive: [20] 95 % of control | [21] 90 % of control | [22] 89 % of control

CCOC(=O)C1C2(C)NC(=O)C1(Cc1ccccc1)c1cc(C)c(C)cc1O2 (stereo not given)
inactive: [4] 99 % of control | [5] 96 % of control | [6] 87 % of control

Nc1nc2c(C(=O)c3cccs3)nnn2c2cccc(Cl)c12
inactive: [20] 99 % of control | [21] 100 % of control | [22] 104 % of control
